PubChem BioAssay AID651829 (Broad Institute, 2012)
Where “and” joins values, the source holds several entries; their conditions need not be identical. Equal values may be shown once. Calls of active or inactive are those of the source.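 The calls were made as follows: active = max delta Tm melting temperature shift above 1 degree C at some tested dose; inactive = the rest.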

What follows are molecules tested against Kelch-like ECH-associated protein 1 (Homo sapiens) (UniProt Q14145) (assay: thermal stabilisation of Keap1 Kelch domain – biophysical, thermal shift, RT-PCR instrument, dry powder, orthogonal assay for Keap1-Nrf2 interaction inhibitor project, dose response (AID 651829)). Details: Recombinant Keap1 Kelch domain, Sypro Orange, at 0.08 µM, top dose 10 µM, stronger effect = higher value.
Chain of Kelch-like ECH-associated protein 1 (Homo sapiens) (Q14145 whole entry, looked up, the tested form may be a part): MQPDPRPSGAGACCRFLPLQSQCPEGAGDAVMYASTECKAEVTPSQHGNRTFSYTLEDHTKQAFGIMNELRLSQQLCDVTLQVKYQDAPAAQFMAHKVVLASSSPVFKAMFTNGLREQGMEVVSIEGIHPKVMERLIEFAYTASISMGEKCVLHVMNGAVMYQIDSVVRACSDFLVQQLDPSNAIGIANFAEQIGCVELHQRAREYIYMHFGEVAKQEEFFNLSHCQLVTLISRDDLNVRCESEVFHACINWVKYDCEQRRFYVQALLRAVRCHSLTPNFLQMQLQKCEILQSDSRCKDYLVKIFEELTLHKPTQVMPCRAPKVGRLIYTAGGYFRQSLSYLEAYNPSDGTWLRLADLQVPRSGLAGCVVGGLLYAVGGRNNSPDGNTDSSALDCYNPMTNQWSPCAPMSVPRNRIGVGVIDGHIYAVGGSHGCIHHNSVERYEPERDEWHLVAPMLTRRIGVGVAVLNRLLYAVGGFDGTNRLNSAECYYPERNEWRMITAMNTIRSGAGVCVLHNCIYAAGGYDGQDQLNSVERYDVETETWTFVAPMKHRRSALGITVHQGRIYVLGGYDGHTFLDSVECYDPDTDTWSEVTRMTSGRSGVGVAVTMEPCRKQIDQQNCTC
With `O=C1c2ccccc2C(=O)N1CC1c2ccccc2CCN1C(=O)Cc1ccccc1` (stereo not drawn) the max delta Tm was 0.259 °C (inactive).

Same assay, conditions: Recombinant Keap1 Kelch domain, Sypro Orange, at 0.16 µM, top dose 38 µM, stronger effect = higher value
For `O=C(O)[C@H]1CCCC[C@H]1C(=O)N1CCc2ccccc2C1` (racemic), the max delta Tm was -0.041 °C (inactive). With `O=C(O)[C@H]1CCCC[C@H]1C(=O)N1CCc2ccccc2[C@H]1CNc1nc(Cl)nc2ccccc12` the max delta Tm was 0.129 °C (inactive). For `Cc1cc(C)c(S(=O)(=O)Nc2nc(NCCO)nc3ccccc23)c(C)c1`, the max delta Tm was 0.147 °C (inactive). `O=C(O)[C@H]1CCCC[C@H]1C(=O)NC(CN1C(=O)c2ccccc2C1=O)c1ccccc1` (stereo partly drawn) was tested, and the max delta Tm was 0.154 °C (inactive). For `Cc1cc(C)c(S(=O)(=O)Nc2nc(N(C)C)nc3ccccc23)c(C)c1`, the max delta Tm was 0.107 °C (inactive). With `O=C(O)C1CCCCC1C(=O)N1CCc2ccccc2[C@H]1C(=O)NCCc1ccccc1` (stereo partly drawn) the max delta Tm was 0.168 °C (inactive).

Same assay, conditions: Recombinant Keap1 Kelch domain, Sypro Orange, at 0.3 µM, top dose 38 µM, stronger effect = higher value
`Cc1ccc(S(=O)(=O)NNc2nc(C(C(=O)OC(C)C)C(=O)C(F)(F)F)nc3ccccc23)cc1` (stereo not drawn) was tested, and the max delta Tm was 0.2 °C (inactive). For `O=C(O)C1CCCCC1C(=O)NCC1c2ccccc2CCN1C(=O)Cc1ccccc1` (stereo not drawn), the max delta Tm was 0.052 °C (inactive). In the case of `Cc1ccc(S(=O)(=O)NNc2nc(NCC(N)=O)nc3ccccc23)cc1`, the max delta Tm is reported as 0.22 °C (inactive). With `O=S(=O)(Nc1nc(NCC2CCCCC2)nc2ccccc12)c1ccccc1` the max delta Tm was 0.21 °C (inactive).

Same assay, conditions: Recombinant Keap1 Kelch domain, Sypro Orange, at 0.6 µM, top dose 38 µM, stronger effect = higher value
With `COC(=O)[C@@H]1CCCC[C@@H]1C(=O)N1CCc2ccccc2[C@@H]1CN1C(=O)c2ccccc2C1=O` the max delta Tm was -0.035 °C (inactive). For `O=C(O)[C@H]1CCCC[C@H]1C(=O)N1CCc2ccccc2C1CCN1C(=O)c2ccccc2C1=O` (stereo partly drawn), the max delta Tm was 0.157 °C (inactive) and 0.069 °C (inactive). With `C=CC(=O)NC[C@@H]1c2ccccc2CCN1C(=O)[C@@H]1CCCC[C@@H]1C(=O)O` the max delta Tm was 0.229 °C (inactive). `O=C(NC[C@@H]1c2ccccc2CCN1C(=O)[C@@H]1CCCC[C@@H]1C(=O)O)OCC1c2ccccc2-c2ccccc21` was tested, and the max delta Tm was 0.138 °C (inactive). For `CC(C)CNc1nc(NS(=O)(=O)c2ccccc2)c2ccccc2n1`, the max delta Tm was 0.095 °C (inactive). For `CCOC(=O)Cc1nc(NS(=O)(=O)c2c(C)cc(C)cc2C)c2ccccc2n1`, the max delta Tm was 0.029 °C (inactive).

Same assay, conditions: Recombinant Keap1 Kelch domain, Sypro Orange, at 1.2 µM, top dose 38 µM, stronger effect = higher value
`COC(=O)[C@H]1CCCC[C@H]1C(=O)N1CCc2ccccc2[C@H]1CN1C(=O)c2ccccc2C1=O` was tested, and the max delta Tm was -0.022 °C (inactive). With `COC(=O)[C@@H]1CCCC[C@@H]1C(=O)N1CCc2ccccc2[C@H]1CN1C(=O)c2ccccc2C1=O` the max delta Tm was -0.023 °C (inactive). In the case of `CCOC(=O)C(C(=O)OCC)c1cc(CN2C(=O)c3ccccc3C2=O)c2ccccc2n1`, the max delta Tm is reported as 0.127 °C (inactive). `Cc1ccc(S(=O)(=O)NNc2nc(N3CC(O)CC3C(=O)O)nc3ccccc23)cc1` (stereo not drawn) was tested, and the max delta Tm was 0.172 °C (inactive). For `O=C(O)C1CCCCC1C(=O)N1CCc2ccccc2C1c1ccccc1` (stereo not drawn), the max delta Tm was -0.003 °C (inactive). In the case of `O=C1c2ccccc2C(=O)N1C[C@H]1NCCc2ccccc21`, the max delta Tm is reported as 0.003 °C (inactive). For `Cc1cc(C)c(S(=O)(=O)Nc2ncnc3ccccc23)c(C)c1`, the max delta Tm was 0.086 °C (inactive).

Same assay, conditions: Recombinant Keap1 Kelch domain, Sypro Orange, at 2.6 µM, top dose 38 µM, stronger effect = higher value
In the case of `COc1ccc(CCN=C2C=C(NS(=O)(=O)c3c(C)cc(C)cc3C)c3ccccc3C2=O)cc1`, the max delta Tm is reported as 0.288 °C (inactive). For `Cc1cc(C)c(S(=O)(=O)Nc2nc(C(C(=O)OC(C)C)C(=O)C(F)(F)F)nc3ccccc23)c(C)c1` (stereo not drawn), the max delta Tm was 0.113 °C (inactive). In the case of `O=C(O)C1CCCCC1C(=O)Nc1ccccc1CN1C(=O)c2ccccc2C1=O` (stereo not drawn), the max delta Tm is reported as 0.138 °C (inactive). `O=C(O)c1ccccc1C(=O)N1CCc2ccccc2C1CN1C(=O)c2ccccc2C1=O` (stereo not drawn) was tested, and the max delta Tm was 0.017 °C (inactive). `O=C(O)C1CCCCC1C(=O)N1CCCCC1CN1C(=O)c2ccccc2C1=O` (stereo not drawn) was tested, and the max delta Tm was -0.027 °C (inactive). `O=C(Oc1cc(CN2C(=O)c3ccccc3C2=O)c2ccccc2[n+]1[O-])c1cccc(Cl)c1` was tested, and the max delta Tm was 0.062 °C (inactive).

Same assay, conditions: Recombinant Keap1 Kelch domain, Sypro Orange, at 10 µM, top dose 38 µM, stronger effect = higher value
With `Cc1cc(C)c(S(=O)(=O)Nc2cc(C(C(=O)OCc3ccccc3)C(=O)OCc3ccccc3)c(O)c3ccccc23)c(C)c1` the max delta Tm was 0.088 °C (inactive). With `O=C(O)CC(=O)N1CCc2ccccc2C1CN1C(=O)c2ccccc2C1=O` (stereo not drawn) the max delta Tm was -0.045 °C (inactive). In the case of `O=C(O)CCCC(=O)N1CCc2ccccc2C1CN1C(=O)c2ccccc2C1=O` (stereo not drawn), the max delta Tm is reported as 0.13 °C (inactive). In the case of `C[C@H](NC(=O)C1CCCC[C@H]1C(=O)O)c1ccccc1` (mixture of isomers), the max delta Tm is reported as -0.003 °C (inactive).

Same assay, conditions: Recombinant Keap1 Kelch domain, Sypro Orange, at 19.5 µM, top dose 19.5 µM, stronger effect = higher value
`Cc1cc(C)c(S(=O)(=O)Nc2cc(C(C(=O)OC(C)C)C(=O)C(F)(F)F)c(O)c3ccccc23)c(C)c1` (stereo not drawn) gave a max delta Tm of 11.4 degrees C.

Same assay, conditions: Recombinant Keap1 Kelch domain, Sypro Orange, at 19.5 µM, top dose 38 µM, stronger effect = higher value
In the case of `Cc1ccc(S(=O)(=O)NC2=CC(=N[C@@H](C)C(=O)OC(C)(C)C)C(=O)c3ccccc32)c(C)c1`, the max delta Tm is reported as 0.3 °C (inactive).

Same assay, conditions: Recombinant Keap1 Kelch domain, Sypro Orange, at 38 µM, top dose 38 µM, stronger effect = higher value
Molecule `Cc1ccc(S(=O)(=O)Nc2cc(C(C(=O)OC(C)C)C(=O)C(F)(F)F)c(O)c3ccccc23)cc1` (stereo not drawn) has a max delta Tm of 6.81 degrees C. Work on `O=C(O)C1CCCCC1C(=O)N1CCc2ccccc2C1CN1C(=O)c2ccccc2S1(=O)=O` (stereo not drawn) yielded a max delta Tm of 3.85 degrees C. Work on `Cc1ccccc1S(=O)(=O)Nc1cc(C(C(=O)OC(C)C)C(=O)C(F)(F)F)c(O)c2ccccc12` (stereo not drawn) yielded a max delta Tm of 7.77 degrees C. In the case of `O=C(O)C1CCCCC1C(=O)N1CCc2ccccc2C1CN1Cc2ccccc2C1=O` (stereo not drawn), the max delta Tm is reported as 5.56 degrees C. Work on `O=C(O)Cc1ccccc1C(=O)N1CCc2ccccc2[C@H]1CN1C(=O)c2ccccc2C1=O` yielded a max delta Tm of 4.85 degrees C. In the case of `C[C@@H](NC(=O)C1CCCC[C@H]1C(=O)O)c1ccccc1` (mixture of isomers), the max delta Tm is reported as 0.005 °C (inactive). With `O=C(O)C1CCCCC1C(=O)N1CCc2ccccc2C1CN1C(=O)[C@H]2CCCC[C@H]2C1=O` (stereo partly drawn) the max delta Tm was 2.32 degrees C. `O=C(O)/C=C\C(=O)N1CCc2ccccc2C1CN1C(=O)c2ccccc2C1=O` (stereo not drawn) was tested, and the max delta Tm was 1.14 degrees C. `O=C1c2ccccc2C(=O)N1C[C@@H]1c2ccccc2CCN1C(=O)C1CCCCC1` was tested, and the max delta Tm was 0.208 °C (inactive). For `O=C(O)[C@H]1CCCC[C@H]1C(=O)N1CCc2ccccc2[C@H]1CNS(=O)(=O)c1ccc([N+](=O)[O-])cc1`, the max delta Tm was 0.907 °C (inactive). With `O=C(NC[C@@H]1c2ccccc2CCN1C(=O)[C@@H]1CCCC[C@@H]1C(=O)O)c1ccc(CCl)cc1` the max delta Tm was 0.364 °C (inactive). `O=C(NC[C@@H]1c2ccccc2CCN1C(=O)[C@@H]1CCCC[C@@H]1C(=O)O)c1ccccc1CO` was tested, and the max delta Tm was 1.92 degrees C. For `O=C(O)[C@H]1CCCC[C@H]1C(=O)N1CCc2ccccc2[C@H]1CNS(=O)(=O)c1ccccc1`, the max delta Tm was 0.368 °C (inactive). In the case of `O=C(NC[C@@H]1c2ccccc2CCN1C(=O)[C@@H]1CCCC[C@@H]1C(=O)O)c1ccc(CN2CCOCC2)cc1`, the max delta Tm is reported as 0.592 °C (inactive). `CC(C)OC(=O)C(C(=O)C(F)(F)F)c1cc(NS(=O)(=O)c2ccccc2)c2ccccc2c1O` (stereo not drawn) showed a max delta Tm of 4.43 degrees C. `O=C(Cc1ccccc1)NC[C@@H]1c2ccccc2CCN1C(=O)[C@@H]1CCCC[C@@H]1C(=O)O` showed a max delta Tm of 1.66 degrees C. Molecule `O=C(O)C1CCCCC1C(=O)N1CCc2ccccc2C1CN1C(=O)Cc2ccccc2C1=O` (stereo not drawn) has a max delta Tm of 1.59 degrees C. In the case of `O=C(O)[C@H]1C2C=CC(C2)[C@H]1C(=O)N1CCc2ccccc2C1CN1C(=O)c2ccccc2C1=O` (stereo partly drawn), the max delta Tm is reported as 1.86 degrees C. For `NC(=O)c1ccccc1C(=O)NC[C@@H]1c2ccccc2CCN1C(=O)[C@@H]1CCCC[C@@H]1C(=O)O`, the max delta Tm was 0.771 °C (inactive). Molecule `Cc1ccc(S(=O)(=O)Nc2cc(C(C(=O)OC(C)C)C(=O)C(F)(F)F)c(O)c3ccccc23)c(C)c1` (stereo not drawn) has a max delta Tm of 9.26 degrees C. `O=C(NCCc1ccccc1)c1ccccc1C(=O)NC[C@@H]1c2ccccc2CCN1C(=O)C1CCCCC1C(=O)O` (stereo partly drawn) showed a max delta Tm of 2.14 degrees C. For `O=C(O)CCC(=O)N1CCc2ccccc2C1CN1C(=O)c2ccccc2C1=O` (stereo not drawn), the max delta Tm was 0.462 °C (inactive).
